Test results: the Kinase Knowledgebase extract (Sharma et al. 2016)

What follows are compounds tested against CDK2 (human) (UniProt P24941) (assay: Enzyme Assay).

Ki, < 1000 nM:
Cn1cnc(NC(=O)CCNc2ccc3c(=O)[nH][nH]c3c2)c1, Cc1cnc(NCCC(Cc2ccccc2)Nc2ccc3c(=O)[nH][nH]c3c2)s1 (configuration not stated), O=C(CCNc1cc(C2CC2)[nH]n1)Nc1ccc2c(=O)[nH][nH]c2c1, O=c1[nH][nH]c2cc(CCCC(Nc3cc(C4CC4)[nH]n3)c3ccccc3)ccc12 (configuration not stated), COC(C)(C)c1cc(Nc2cc(C3CC3)[nH]n2)nc(Sc2ccc3c(=O)[nH][nH]c3c2)n1, O=c1[nH][nH]c2cc(C(F)(F)F)c(-c3nc4c(c(Nc5n[nH]c6ccc(F)cc56)n3)OCCCC4)cc12, Cc1cc(Nc2nc(Sc3ccc4c(=O)[nH][nH]c4c3)nc3ccccc23)n[nH]1, CCc1cc(Nc2cc(C)[nH]n2)nc(-c2ccc3[nH][nH]c(=O)c3c2)n1, O=c1[nH][nH]c2cc(Sc3nc(Nc4cc(C5CC5)[nH]n4)cc(N4CCOCC4)n3)ccc12, Cc1cc(Nc2nc(Oc3ccc4c(=O)[nH][nH]c4c3)cc3ccccc23)n[nH]1, O=c1[nH][nH]c2cc(SC(CCNc3nccnn3)Cc3ccccc3)ccc12 (configuration not stated), Cc1nc(Nc2cc(-c3ccncc3)nc(-c3ccc4[nH][nH]c(=O)c4c3C(F)(F)F)n2)n[nH]1, O=c1[nH][nH]c2cc(NC3COCC(Nc4cc(C5CC5)[nH]n4)C3)ccc12 (configuration not stated), O=C(CCCc1ccc2c(=O)[nH][nH]c2c1)Nc1cc(C2CC2)[nH]n1, Cn1cnc(NC2CCCC(C(C)(C)c3ccc4c(=O)[nH][nH]c4c3)C2)c1 (configuration not stated), O=C(CCNc1ccccn1)Cc1ccc2c(=O)[nH][nH]c2c1, CSc1n[nH]c(Nc2nc(Nc3ccc4c(=O)[nH][nH]c4c3)ccc2[N+](=O)[O-])n1, O=c1[nH][nH]c2cc(Sc3nc(Nc4cc(C5CC5)[nH]n4)c4cccc(F)c4n3)ccc12, O=c1[nH][nH]c2cc(SC(CCNc3cc(C4CC4)[nH]n3)Cc3ccccc3)ccc12 (configuration not stated), Cc1cnc(Sc2ccc3c(=O)[nH][nH]c3c2)nc1Nc1cc(C2CC2)[nH]n1, O=c1[nH][nH]c2ccc(-c3nc(Nc4cc(C5CC5)[nH]n4)c4ccccc4n3)c(C(F)(F)F)c12, O=c1[nH][nH]c2cc(C(F)(F)F)c(-c3nc(Nc4n[nH]c5ccccc45)nc(N4CCSCC4)n3)cc12, Cn1cnc(NC(=O)CCOc2ccc3c(=O)[nH][nH]c3c2)c1, COCc1cc(Nc2cc(C)[nH]n2)nc(Nc2ccc3c(=O)[nH][nH]c3c2)n1, O=c1[nH][nH]c2ccc(C3CCC(Nc4ccccn4)C3)cc12 (configuration not stated), Cc1cc(Nc2cc(C)[nH]n2)nc(Nc2ccc3c(=O)[nH][nH]c3c2)n1, Cc1cc(Nc2nc(COc3ccc4[nH][nH]c(=O)c4c3)nc3c2CCCC3)n[nH]1, O=c1[nH][nH]c2cc(Sc3nccc(Nc4cc(C5CC5)[nH]n4)n3)ccc12, O=c1[nH][nH]c2ccc(-c3nc4c(c(Nc5n[nH]c6ccc(F)cc56)n3)CN(Cc3ccccc3)CC4)c(C(F)(F)F)c12, O=c1[nH][nH]c2ccc(-c3nc(Nc4n[nH]c5cc(=O)n(-c6ccccc6)nc45)c4ccccc4n3)cc12, Cc1cnc(NC(=O)CCOc2ccc3c(=O)[nH][nH]c3c2)s1, O=c1[nH][nH]c2ccc(-c3nc4c(c(Nc5n[nH]c6ccc(F)cc56)n3)CCC4)c(C(F)(F)F)c12, O=c1[nH][nH]c2cc(CCCCNc3ccccn3)ccc12, CS(=O)(=O)N1CCCCC1c1cc(Nc2n[nH]c3ccccc23)nc(-c2ccc3[nH][nH]c(=O)c3c2C(F)(F)F)n1 (configuration not stated), Cc1cnc(NC2CCCC2CSc2ccc3c(=O)[nH][nH]c3c2)s1 (configuration not stated), Cc1cc(Nc2cc(C)[nH]n2)nc(C2(c3ccc4c(=O)[nH][nH]c4c3)CC2)n1, O=c1[nH][nH]c2cc(Nc3nc(Nc4n[nH]c5ccccc45)c4ccccc4n3)ccc12, O=c1[nH][nH]c2cc(CCCCNc3nccnn3)ccc12, Cc1cnc(NC2COCC(Sc3ccc4c(=O)[nH][nH]c4c3)C2)s1 (configuration not stated), Cc1cc(Nc2cc(Oc3ccc4c(=O)[nH][nH]c4c3)nc3ccccc23)n[nH]1, Cc1cc(Nc2nc(NCc3ccc4c(=O)[nH][nH]c4c3)cc3ccccc23)n[nH]1, Cc1cnc(NCCCOc2ccc3c(=O)[nH][nH]c3c2)s1, Cc1nc(Nc2nc(-c3ccc4[nH][nH]c(=O)c4c3C(N)=O)nc3ccccc23)n[nH]1, O=c1[nH][nH]c2cc(Oc3cc(Nc4cc(C5CC5)[nH]n4)ccn3)ccc12, O=c1[nH][nH]c2cc(C(F)(F)F)c(-c3cc(Nc4n[nH]c(C5CC5)n4)c4ccccc4n3)cc12, Nc1ccc(Nc2ccc3c(=O)[nH][nH]c3c2)nc1Nc1cc(C2CC2)[nH]n1, Cc1cc(Nc2nc(Sc3ccc4c(=O)[nH][nH]c4c3)cc3ccccc23)n[nH]1, Cc1cc(Nc2nc(Sc3ccc4c(=O)[nH][nH]c4c3)nc3cc(N)ccc23)n[nH]1, Cc1cc(Nc2cc(-c3ccco3)[nH]n2)nc(-c2ccc3[nH][nH]c(=O)c3c2)n1, O=c1[nH][nH]c2cc(SCCONc3nccnn3)ccc12, CSc1nc(Nc2ccc3c(=O)[nH][nH]c3c2)cc(Nc2cc(C3CC3)[nH]n2)n1, Cc1cccc2c(Nc3cc(-c4ccco4)[nH]n3)nc(-c3ccc4[nH][nH]c(=O)c4c3OC(F)(F)F)nc12, CCc1cc(Nc2cc(C)[nH]n2)nc(CSc2ccc3[nH][nH]c(=O)c3c2)n1, O=c1[nH][nH]c2cc(NOCCNc3nccnn3)ccc12, Cc1cc(Nc2cc(-c3ccccc3)[nH]n2)nc(-c2ccc3[nH][nH]c(=O)c3c2)n1, Cc1cnc(Nc2cccc(Nc3ccc4c(=O)[nH][nH]c4c3)c2)s1, O=C(CC(=O)Oc1ccc2c(=O)[nH][nH]c2c1)Nc1cc(C2CC2)[nH]n1, Cn1cnc(NCCC(Cc2ccccc2)Nc2ccc3c(=O)[nH][nH]c3c2)c1 (configuration not stated), O=c1[nH][nH]c2cc(OC(CCNc3nccnn3)Cc3ccccc3)ccc12 (configuration not stated), O=C(CCNc1cc(C2CC2)[nH]n1)Cc1ccc2c(=O)[nH][nH]c2c1, COCC(C)(C)c1cc(Nc2cc(C)[nH]n2)nc(Sc2ccc3c(=O)[nH][nH]c3c2)n1, Cc1cc(Nc2ccnc(Sc3ccc4c(=O)[nH][nH]c4c3)c2)n[nH]1
